Values after ≈ are worked out from the molar mass of the structure shown. Where two headings read alike, the source gives them in different places.
Assays:
Proteus vulgaris OX-19 = experiment: antibacterial spectrum, minimal inhibitory concentration; format: cell-based
[1] = test system: Staphylococcus aureus 209P JC-1; experiment: as above; format: cell-based
[2] = test system: Escherichia coli JR88/W677; experiment: as above; format: cell-based; conditions: resistance mechanism AAC(3)I
[3] = test system: Pseudomonas aeruginosa K-11; experiment: as above; format: cell-based
Serratia marcescens = experiment: as above; format: cell-based; conditions: read-out: Minimal inhibitory concentration
Escherichia coli R-82 = experiment: as above; format: cell-based; conditions: R82, resistance mechanism APH(3')II
[4] = test system: Escherichia coli NIHJ JC-2; experiment: as above; format: cell-based
[5] = test system: Pseudomonas aeruginosa TK-157; experiment: as above; format: cell-based
Escherichia coli R-176 = experiment: as above; format: cell-based; conditions: R176, resistance mechanism AAC(3)II
[6] = test system: Bacillus subtilis ATCC 6633; experiment: as above; format: cell-based; conditions: ATCC6633
[7] = test system: Pseudomonas aeruginosa A3; experiment: as above; format: cell-based
[8] = test system: Pseudomonas aeruginosa TI-13; experiment: as above; format: cell-based
From the text: | Resistance mechanism: ^a APH(3')I,

[9] = test system: Pseudomonas aeruginosa No. 99; experiment: as above; format: cell-based
Escherichia coli R-101 = experiment: as above; format: cell-based
Escherichia coli R-81 = experiment: as above; conditions: R81, read-out: Minimal inhibitory concentration
[10] = test system: Proteus inconstans GN1554; experiment: as above; format: cell-based; conditions: Providencia alcalifaciens
[11] = test system: Escherichia coli K-12 ML1410; experiment: as above; format: cell-based; conditions: K12ML1410
Streptococcus faecalis = experiment: as above; format: cell-based; conditions: Enterococcus faecalis
Bacillus cereus = experiment: as above; format: cell-based
Bacillus anthracis = experiment: microbe, parasite or virus in culture; format: cell-based; conditions: read-out: Minimal inhibitory concentration
[12] = test system: Pseudomonas aeruginosa GN315; experiment: antibacterial spectrum, minimal inhibitory concentration; format: cell-based
[13] = test system: Klebsiella pneumoniae PCI 602; experiment: as above; format: cell-based
[14] = test system: Pseudomonas aeruginosa No. 12; experiment: as above; format: cell-based
[15] = Proteus vulgaris, OX19, read-out: Minimal inhibitory concentration
[16] = Pseudomonas aeruginosa, K11, read-out: Minimal inhibitory concentration
[17] = Escherichia coli, NIHJJC2, read-out: Minimal inhibitory concentration
[18] = TK157, Pseudomonas aeruginosa TK-157, resistance mechanism APH(3')II, read-out: Minimal inhibitory concentration
[19] = Pseudomonas aeruginosa A3, read-out: Minimal inhibitory concentration
[20] = Pseudomonas aeruginosa, TI13, read-out: Minimal inhibitory concentration
[21] = Pseudomonas aeruginosa, NO.99, read-out: Minimal inhibitory concentration
[22] = Escherichia coli, R101, read-out: Minimal inhibitory concentration
[23] = GN1554, read-out: Minimal inhibitory concentration
[24] = Pseudomonas aeruginosa, GN315, read-out: Minimal inhibitory concentration
[25] = PCI602, Klebsiella pneumoniae PCI 602, read-out: Minimal inhibitory concentration
[26] = Pseudomonas aeruginosa, TK157, read-out: Minimal inhibitory concentration
[27] = Pseudomonas aeruginosa, A3, read-out: Minimal inhibitory concentration
[28] = OX19, Proteus vulgaris OX-19, read-out: Minimal inhibitory concentration
[29] = K11, Pseudomonas aeruginosa K-11, read-out: Minimal inhibitory concentration
[30] = NIHJJC2, Escherichia coli NIHJ JC-2, read-out: Minimal inhibitory concentration
[31] = TI13, Pseudomonas aeruginosa TI-13, resistance mechanism APH(3')I, read-out: Minimal inhibitory concentration
[32] = Pseudomonas aeruginosa No. 99, resistance mechanism AAC(3)I, read-out: Minimal inhibitory concentration
[33] = Pseudomonas aeruginosa GN315, resistance mechanism AAC(6')IV, read-out: Minimal inhibitory concentration
[34] = R101, Escherichia coli R-101, resistance mechanism AAD(2"), read-out: Minimal inhibitory concentration
[35] = Proteus inconstans GN1554, resistance mechanism AAC(2'), read-out: Minimal inhibitory concentration
[36] = Klebsiella pneumoniae, PCI602, read-out: Minimal inhibitory concentration

Row | Compound | MIC [1] [µg/mL] | MIC [2] [µg/mL] | MIC (Serratia marcescens) [µg/mL] | MIC (Escherichia coli R-82) [µg/mL] | MIC [5, 18] [µg/mL] | MIC (Escherichia coli R-176) [µg/mL] | MIC [6] [µg/mL] | MIC (Escherichia coli R-101; [22]) [µg/mL] | MIC (Escherichia coli R-81) [µg/mL] | MIC [10, 23] [µg/mL] | MIC [11] [µg/mL] | MIC (Streptococcus faecalis) [µg/mL] | MIC (Bacillus cereus) [µg/mL] | MIC (Bacillus anthracis) [µg/mL] | MIC [13, 25] [µg/mL] | MIC [14] [µg/mL] | MIC [7, 27] [µg/mL] | MIC (Proteus vulgaris OX-19; [28]) [µg/mL] | MIC [3, 29] [µg/mL] | MIC [9, 32] [µg/mL] | also measured
1 | CC(N)C1CCC(N)C(OC2C(N)CC(OCC(O)CN)C(N(C)C(=O)CN)C2O)O1 (stereo not drawn) [A, 5-O-(3-amino-2-hydroxypropyl)-5-de-O-methyl-KA-6606 I] | 0.39 (≈ 0.869 µM) | 6.25 (≈ 13.9 µM) | 1.56 (≈ 3.48 µM) | 3.13 (≈ 6.98 µM) | 1.56 (≈ 3.48 µM) | 6.25 (≈ 13.9 µM) | 0.2 (≈ 0.446 µM) | 3.13 (≈ 6.98 µM) | 3.13 (≈ 6.98 µM) | 6.25 (≈ 13.9 µM) | 3.13 (≈ 6.98 µM) | 50 (≈ 111 µM) | 0.78 (≈ 1.74 µM) | ≤ 0.1 | 1.56 (≈ 3.48 µM) | 0.39 (≈ 0.869 µM) | – | – | – | – | MIC (Proteus vulgaris OX-19; [15]): 3.13 µg/mL (≈ 6.98 µM); MIC [3, 16]: 3.13 µg/mL (≈ 6.98 µM); MIC [4, 17]: 3.13 µg/mL (≈ 6.98 µM); MIC [7, 19]: 1.56 µg/mL (≈ 3.48 µM); MIC [8, 20]: 3.13 µg/mL (≈ 6.98 µM); MIC [9, 21]: 6.25 µg/mL (≈ 13.9 µM); MIC [12, 24]: 3.13 µg/mL (≈ 6.98 µM)
2 | CC(N)C1CCC(N)C(OC2C(N)CC(OCC(O)CCN)C(N(C)C(=O)CN)C2O)O1 (stereo not drawn) [B, 5-O-(4-amino-2-hydroxybutyl)-5-de-O-methyl-KA-6606 I] | 0.39 (≈ 0.843 µM) | 3.13 (≈ 6.77 µM) | 1.56 (≈ 3.37 µM) | 3.13 (≈ 6.77 µM) | – | 6.25 (≈ 13.5 µM) | ≤ 0.1 | 3.13 (≈ 6.77 µM) | 3.13 (≈ 6.77 µM) | 6.25 (≈ 13.5 µM) | 3.13 (≈ 6.77 µM) | 50 (≈ 108 µM) | 1.56 (≈ 3.37 µM) | ≤ 0.1 | 1.56 (≈ 3.37 µM) | 0.39 (≈ 0.843 µM) | 3.13 (≈ 6.77 µM) | – | – | – | MIC (Proteus vulgaris OX-19; [15]): 3.13 µg/mL (≈ 6.77 µM); MIC [3, 16]: 6.25 µg/mL (≈ 13.5 µM); MIC [4, 17]: 3.13 µg/mL (≈ 6.77 µM); MIC [5, 26]: 3.13 µg/mL (≈ 6.77 µM); MIC [8, 20]: 3.13 µg/mL (≈ 6.77 µM); MIC [9, 21]: 6.25 µg/mL (≈ 13.5 µM); MIC [12, 24]: 6.25 µg/mL (≈ 13.5 µM)
3 | CC(N)C1CCC(N)C(OC2C(N)CC(OCC(O)CO)C(N(C)C(=O)CN)C2O)O1 (stereo not drawn) [C, 5-de-O-methyl-5-O-(2,3-dihydroxypropyl)-KA-6606 I] | 0.39 (≈ 0.868 µM) | 6.25 (≈ 13.9 µM) | 3.13 (≈ 6.96 µM) | 6.25 (≈ 13.9 µM) | 12.5 (≈ 27.8 µM) | 6.25 (≈ 13.9 µM) | 0.2 (≈ 0.445 µM) | 6.25 (≈ 13.9 µM) | 6.25 (≈ 13.9 µM) | 6.25 (≈ 13.9 µM) | 6.25 (≈ 13.9 µM) | 100 (≈ 222 µM) | 3.13 (≈ 6.96 µM) | ≤ 0.1 | 0.78 (≈ 1.74 µM) | 1.56 (≈ 3.47 µM) | 6.25 (≈ 13.9 µM) | 3.13 (≈ 6.96 µM) | 12.5 (≈ 27.8 µM) | 25 (≈ 55.6 µM) | MIC [4, 30]: 3.13 µg/mL (≈ 6.96 µM); MIC [8, 31]: 12.5 µg/mL (≈ 27.8 µM); MIC [12, 33]: 12.5 µg/mL (≈ 27.8 µM)
4 | CC(N)C1CCC(N)C(OC2C(N)CC(O[C@@H]3O[C@H](CO)[C@@H](O)[C@H](O)[C@H]3O)C(N(C)C(=O)CN)C2O)O1 (stereo partly drawn) [D, 5-de-O-methyl-5-O-(β-D-glucopyranosyl)-KA-6606 I] | 0.78 (≈ 1.45 µM) | 3.13 (≈ 5.82 µM) | 3.13 (≈ 5.82 µM) | 12.5 (≈ 23.3 µM) | 6.25 (≈ 11.6 µM) | 3.13 (≈ 5.82 µM) | 0.39 (≈ 0.725 µM) | – | 12.5 (≈ 23.3 µM) | – | 12.5 (≈ 23.3 µM) | > 100 | 6.25 (≈ 11.6 µM) | 0.2 (≈ 0.372 µM) | – | 0.78 (≈ 1.45 µM) | 12.5 (≈ 23.3 µM) | 6.25 (≈ 11.6 µM) | 25 (≈ 46.5 µM) | 25 (≈ 46.5 µM) | MIC [4, 30]: 6.25 µg/mL (≈ 11.6 µM); MIC [8, 20]: 12.5 µg/mL (≈ 23.3 µM); MIC (Escherichia coli R-101; [34]): 6.25 µg/mL (≈ 11.6 µM); MIC [10, 35]: 25 µg/mL (≈ 46.5 µM); MIC [12, 33]: 25 µg/mL (≈ 46.5 µM); MIC [13, 36]: 3.13 µg/mL (≈ 5.82 µM)
5 | CC(N)C1CCC(N)C(OC2C(N)CC(O[C@H]3O[C@H](CO)[C@@H](O)[C@H](N)[C@H]3O)C(N(C)C(=O)CN)C2O)O1 (stereo partly drawn) [E, 5-O-(3-amino-3-deoxy-α-D-glucopyranosyl)-5-de-O-methyl-KA-6606 I] | 0.39 (≈ 0.727 µM) | 1.56 (≈ 2.91 µM) | 1.56 (≈ 2.91 µM) | 6.25 (≈ 11.6 µM) | – | 6.25 (≈ 11.6 µM) | 0.2 (≈ 0.373 µM) | – | 6.25 (≈ 11.6 µM) | 6.25 (≈ 11.6 µM) | 6.25 (≈ 11.6 µM) | 50 (≈ 93.2 µM) | 0.78 (≈ 1.45 µM) | 0.2 (≈ 0.373 µM) | – | 0.39 (≈ 0.727 µM) | 6.25 (≈ 11.6 µM) | 3.13 (≈ 5.83 µM) | 3.13 (≈ 5.83 µM) | 12.5 (≈ 23.3 µM) | MIC [4, 30]: 3.13 µg/mL (≈ 5.83 µM); MIC [5, 26]: 1.56 µg/mL (≈ 2.91 µM); MIC [8, 31]: 3.13 µg/mL (≈ 5.83 µM); MIC (Escherichia coli R-101; [34]): 3.13 µg/mL (≈ 5.83 µM); MIC [12, 24]: 6.25 µg/mL (≈ 11.6 µM); MIC [13, 36]: 1.56 µg/mL (≈ 2.91 µM)
6 | COC1CC(N)C(OC2OC(C(C)N)CCC2N)C(O)C1N(C)C(=O)CN (stereo not drawn) [KA-6606 I, reference compound] | 0.39 (≈ 1 µM) | > 100 | 3.13 (≈ 8.04 µM) | 3.13 (≈ 8.04 µM) | 6.25 (≈ 16 µM) | 3.13 (≈ 8.04 µM) | 0.2 (≈ 0.513 µM) | 3.13 (≈ 8.04 µM) | 3.13 (≈ 8.04 µM) | – | 3.13 (≈ 8.04 µM) | 25 (≈ 64.2 µM) | 1.56 (≈ 4.01 µM) | 0.2 (≈ 0.513 µM) | 1.56 (≈ 4.01 µM) | 0.39 (≈ 1 µM) | – | 1.56 (≈ 4.01 µM) | 12.5 (≈ 32.1 µM) | > 100 | MIC [4, 17]: 3.13 µg/mL (≈ 8.04 µM); MIC [7, 19]: 6.25 µg/mL (≈ 16 µM); MIC [8, 31]: 6.25 µg/mL (≈ 16 µM); MIC [10, 35]: 6.25 µg/mL (≈ 16 µM); MIC [12, 33]: 12.5 µg/mL (≈ 32.1 µM)
